# Source: patent publication US10807993B2, “Dihydrochromene derivatives” (Sumitomo Dainippon Pharma Co., Ltd., priority 2018, dated 2020)
# Like-named read-outs stand apart in the source and are kept apart here.
# How the values were obtained:
# hERG = hERG (Homo sapiens (Human), UniProt Q12809); assay: Test for evaluating hERG inhibition (QPatch HT, CHO cell strain stably expressing hERG); details: for hERG/HT-29: hERG IC50 (Test 2) divided by HT-29 sphere IC50 (Test 1); for deviation between the concentration of inhibiting 50% cell proliferation and the concentration of inhibiting 50% hERG current: summary in words of hERG/HT-29
# Sequence of hERG (Q12809 whole entry): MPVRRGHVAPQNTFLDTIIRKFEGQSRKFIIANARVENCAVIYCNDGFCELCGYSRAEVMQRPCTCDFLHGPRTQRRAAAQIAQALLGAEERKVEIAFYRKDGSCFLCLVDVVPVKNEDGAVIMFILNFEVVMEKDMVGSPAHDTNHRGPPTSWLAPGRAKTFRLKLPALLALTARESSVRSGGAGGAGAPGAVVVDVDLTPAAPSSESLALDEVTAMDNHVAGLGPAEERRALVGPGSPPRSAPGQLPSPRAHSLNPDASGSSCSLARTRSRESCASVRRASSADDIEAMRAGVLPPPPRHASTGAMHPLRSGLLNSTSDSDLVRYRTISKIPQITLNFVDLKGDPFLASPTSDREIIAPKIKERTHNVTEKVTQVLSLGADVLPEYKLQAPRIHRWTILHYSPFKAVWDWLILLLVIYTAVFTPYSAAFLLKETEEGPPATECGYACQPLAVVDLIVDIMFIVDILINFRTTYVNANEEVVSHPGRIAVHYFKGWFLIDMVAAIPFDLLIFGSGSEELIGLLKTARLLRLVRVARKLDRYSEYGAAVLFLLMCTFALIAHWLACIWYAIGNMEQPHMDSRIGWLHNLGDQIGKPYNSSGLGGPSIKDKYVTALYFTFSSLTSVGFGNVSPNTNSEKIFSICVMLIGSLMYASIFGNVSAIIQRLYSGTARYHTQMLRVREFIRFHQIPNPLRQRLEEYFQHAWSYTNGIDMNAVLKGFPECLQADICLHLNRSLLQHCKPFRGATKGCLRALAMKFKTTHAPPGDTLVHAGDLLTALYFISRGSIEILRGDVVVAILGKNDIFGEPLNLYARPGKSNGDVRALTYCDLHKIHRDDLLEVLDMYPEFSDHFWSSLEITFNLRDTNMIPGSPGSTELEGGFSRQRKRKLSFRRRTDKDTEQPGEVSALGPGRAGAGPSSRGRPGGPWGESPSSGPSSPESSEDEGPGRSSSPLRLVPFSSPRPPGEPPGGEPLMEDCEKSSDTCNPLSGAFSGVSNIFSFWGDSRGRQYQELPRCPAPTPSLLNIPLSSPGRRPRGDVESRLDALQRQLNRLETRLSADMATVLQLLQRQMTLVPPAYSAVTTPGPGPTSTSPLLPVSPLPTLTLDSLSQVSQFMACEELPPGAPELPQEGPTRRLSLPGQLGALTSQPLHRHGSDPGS
# Method: To a cultured CHO cell strain which stably expresses hERG was added each test compound to adjust the final concentration of DMSO to 0.0135 to 0.5%. The hERG current was measured with QPatch HT (Sophion Inc.), and the concentration at which 50% of the hERG current was inhibited by each test compound (IC50 value; μM) was calculated.
# The compounds of Examples were tested according to Test 2. And, the hERG/HT-29 was calculated by dividing the compound concentration obtained in Test 2 (50% of the hERG current is inhibited) by the compound concentration obtained in Test 1 (50% of the proliferation of HT-29 cells is inhibited).
# HT-29 cells = assay: Inhibition test for sphere formation assay of cancer cells; assay type: cell-based; details: for IC50: sphere culture (ultra-low attachment, serum-free), 4 days, CellTiter-Glo, read-out: Sphere IC50 value (concentration for 50% inhibition of cell proliferation); for activity for inhibiting cell proliferation in the sphere culture condition: summary in words
# Method: Reliable methods established for measuring the self-renewal ability of cells which is one of the CSC's properties include a method for measuring the sphere-forming ability of cancer cells in non-adherent condition in the absence of serum (Cancer Res 65, 5506-5511 (2005)). HT-29 cells were available from American Type Culture Collection (ATCC). HT-29 cells were cultured at 37° C. under 5% CO2 using the McCoy's 5a medium containing 10% fetal bovine serum (FBS) and 1% penicillin/streptomycin. HT-29 cells were seeded in a 384 Well Black Clear Bottom Ultra-Low Attachment Microplate (Corning Cat. No. 3827) in an amount of 350-800 cells/well using the DMEM/F12 medium containing 2% B27 supplement (GIBCO), 20 ng/mL epidermal growth factor (EGF) (peprotech), 10 ng/mL basic fibroblast growth factor (bFGF) (peprotech), 5 μg/mL insulin (Sigma), and 1% penicillin/streptomycin. Each test compound was added into each well to adjust the final concentration of DMSO to 0.1%, and the cells were cultured for 4 days. The number of viable cells in each well was then measured with CellTiter-Glo™ Luminescent Cell Viability Assay (Promega) to calculate the concentration of each test compound for 50% inhibition of cell proliferation (Sphere IC50 value; […])
# The experiment of Test 1 was performed for each compound of each Example. The concentration of each test compound for 50% inhibition of cell proliferation (Sphere IC50 value; μmol/L) is shown in the following Table.
# [1] = read-out: Binding inhibition (IC50, μM), concentration at which 50% of the hERG current was inhibited, CHO cells stably expressing hERG, QPatch HT
IC50 (HT-29 cells),"IC50 (HT-29 cells; Homo sapiens, 96 h)",SMILES,hERG/HT-29 (hERG),IC50 (hERG; [1]),deviation between the concentration of inhibiting 50% cell proliferation and the concentration of inhibiting 50% hERG current (hERG),activity for inhibiting cell proliferation in the sphere culture condition (HT-29 cells),IC50 (hERG)
350 nM,–,Cc1nc[nH]c1CN1CCC2(CC1)COC1c3cccc(Cl)c3OC(C)(C)C1C2 (stereo not drawn) [Example 27],1.14,0.4 µM,–,–,–
< 10 nM,–,CC1(C)Oc2ccc(F)cc2C2OCC3(CCN(CCn4ccnc4CO)CC3)CC21 (stereo not drawn) [Example 52],–,–,–,potent activity,–
< 10 nM,–,CC1(C)Oc2ccc(Cl)cc2C2OCC3(CCN(CCn4ccnc4CO)CC3)CC21 (stereo not drawn) [Example 53],–,–,–,potent activity,–
90 nM,–,CCc1nc(C)c(CN2CCC3(CC2)COC2c4cc(Cl)ccc4OC(C)(C)C2C3)[nH]1 (stereo not drawn) [Example 28],–,–,–,–,–
4400 nM,–,CC1(C)Oc2ccc(Cl)cc2C2OCC3(CCN(C(=O)Cn4cnc(CF)c4)CC3)CC21 (stereo not drawn) [Example 16],–,–,–,–,–
< 10 nM,–,Cc1nccn1CCN1CCC2(CC1)COC1c3cc(F)ccc3OC(C)(C)C1C2 (stereo not drawn) [Example 44],>360,3.6 µM,good deviation,potent activity,–
< 10 nM,–,Cc1c(CO)ncn1CCN1CCC2(CC1)COC1c3cc(Cl)ccc3OC(C)(C)C1C2 (stereo not drawn) [Example 56],>80,0.8 µM,good deviation,potent activity,–
310 nM,–,"Cc1nccn1CC(=O)N1CCC2(CC1)COC1c3cc(Cl)ccc3OC(C)(C)C1C2 (single isomer, unassigned) [Example 4]",–,< 0.3 µM,–,–,–
–,80 nM,"Cc1nccn1CC(=O)N1CCC2(CC1)COC1c3cc(Cl)ccc3OC(C)(C)C1C2 (racemic) [Example 1, Racemate of 1-[(4′aS,10′bS)-9′-chloro-5′,5′-dimethyl-4′a,10′b-dihydro-2′H,4′H,5′H-spiro[piperidine-4,3′-pyrano[3,2-c][1]benzopyran]-1-yl]-2-(2-methyl-1H-imidazol-1-yl)ethan-1-one and 1-[(4′aR,10′bR)-9′-chloro-5′,5′-dimethyl-4′a,10′b-dihydro-2′H, 4′H, 5′H-spiro[piperidine-4,3′-pyrano[3,2-c][1]benzopyran]-1-yl]-2-(2-methyl-1H-imidazol-1-yl)ethan-1-one]",–,–,–,–,< 0.3 µM
–,–,CC1(C)Oc2cc(Cl)ccc2C2OCC3(CCN(CCn4ccnc4CCN)CC3)CC21 (stereo not drawn) [Example 62],–,6.3 µM,–,–,–
40 nM,–,Cn1ccnc1CN1CCC2(CC1)COC1c3cc(Cl)ccc3OC(C)(C)C1C2 (stereo not drawn) [Example 36],–,–,–,–,–
980 nM,–,COC(=O)c1cn(CCN2CCC3(CC2)COC2c4cc(Cl)ccc4OC(C)(C)C2C3)cn1 (stereo not drawn) [Example 59],–,–,–,–,–
–,–,Cc1nccn1CCN1CCC2(CC1)COC1c3cc(Cl)ccc3OC(C)(C)C1C2 (stereo not drawn) [Example 46],>120,1.2 µM,good deviation,–,–

SMILES,IC50 (HT-29 cells),"IC50 (HT-29 cells; Homo sapiens, 96 h)",hERG/HT-29 (hERG),IC50 (hERG; [1]),deviation between the concentration of inhibiting 50% cell proliferation and the concentration of inhibiting 50% hERG current (hERG),activity for inhibiting cell proliferation in the sphere culture condition (HT-29 cells),IC50 (hERG)
Cc1nccn1CCN1CCC2(CC1)COC1c3cc(Cl)ccc3OC(C)(C)C1C2 (stereo not drawn) [Example 47],< 10 nM,–,>190,1.9 µM,good deviation,potent activity,–
CC1(C)Oc2cc(Cl)ccc2C2OCC3(CCN(CCn4ccnc4)CC3)CC21 (stereo not drawn) [Example 42],< 10 nM,–,>140,1.4 µM,good deviation,potent activity,–
Cc1nc[nH]c1CN1CCC2(CC1)COC1c3cc(F)ccc3OC(C)(C)C1C2 (stereo not drawn) [Example 21],210 nM,–,7.14,1.5 µM,–,–,–
Cc1nc[nH]c1CN1CCC2(CC1)COC1c3cc(F)ccc3OC(C)(C)C1C2 (stereo not drawn) [Example 23],60 nM,–,23.3,1.4 µM,–,–,–
Cc1nc[nH]c1CN1CCC2(CC1)COC1c3cc(F)ccc3OC(C)(C)C1C2 (stereo not drawn) [Example 22],240 nM,–,6.67,1.6 µM,–,–,–
